The record followed here is US20240091218A1, “METHODS OF TREATING PROSTATE CANCER USING EXICORILANT AND ENZALUTAMIDE” (Corcept Therapeutics Incorporated, priority 2022, published 2024).

“And” between values parts separate entries of the source, which are not always exact repeats. Identical values can stand only once. “Also recorded” adds a separate entry of the source. Like-named read-outs stand apart in the source and are kept apart here.

For data set [1] the following is noted: male, human, in vivo.
The subject of another data set is GR target genes (CDKN1C). In words: GR target gene expression in blood (NanoString).
Data set [2] has as its system 22Rv1 prostate cancer xenografts. The data set can be described thus: mouse 22Rv1 prostate cancer xenografts. In kind it is in vivo. As to conditions: 21 days. From the text:
Left: N=10 mice/group. Castration performed 5 days after inoculation with 22Rv1 tumor cells; exicorilant treatment initiated on day 6 for 21 days. Right: N=10 mice/group. Castration performed 3 days before implantation of 22Rv1 tumor cells; exicorilant treatment initiated on day 7 for 21 days.

The text on data set [3]:
The present study was an investigation of the safety and efficacy of exicorilant when administered in combination with enzalutamide in the treatment of patients suffering from metastatic castration-resistant prostate cancer (mCRPC). […] Patients with histologically confirmed prostate cancer, who had received at least two prior regimens of cytotoxic chemotherapy, were eligible for this study.
Patients in Segment 1 of the study received exicorilant twice daily under fasted conditions. This segment of the study was performed with a standard ‘3+3’ design, including one cohort with an enzalutamide alone lead-in. Enzalutamide was administered once daily.
Patients in Segment 2 of the study received exicorilant once daily under fed conditions. This segment of the study was a double-blind study, in which patients were randomized 3:1 to exicorilant titration (starting at 240 mg, titrated to 280 mg followed by 320 mg every 2 weeks as tolerated starting Cycle 1 Day 16) or to stay on exicorilant 240 mg+placebo. Enzalutamide was administered once daily.
Treatment emergent adverse events (TEAEs) and dose-limiting toxicity events (DLTs) were evaluated for the patients in Segment 2.
Dose-limiting toxicities (DLTs) were recorded from first dose of exicorilant through Cycle 3 and were defined as considered possibly or probably related to study drug by the investigator.

The next data set relates to cortisol, ACTH. In words: serum cortisol, ACTH and 24-h urinary free cortisol in patients. In kind it is in vivo, human. As to conditions: for serum cortisol and ACTH levels: patients receiving exicorilant and enzalutamide. The protocol: Data from Segment 2 subjects whose exicorilant doses were escalated to the doses indicated on the horizontal axis. The 24-h UFC reference range was 10-100 μg/day. The 24-h UFC value for C1D1 (cycle 1, day 1) indicates the initial 24-h UFC levels.
Consistent with prior studies of exicorilant and other SGRMs, morning serum cortisol and ACTH levels were not affected in the safety population or patients who escalated to 320 mg exicorilant. […] The grey band indicates the baseline mean±SD. End of treatment: n=9; cycle 9 day 1: n=3; cycle 6 day 1: n=8; cycle 3 day 1: n=14; cycle 2 day 1: n=13; baseline: n=20.

Data set [4] deals with metastatic castration-resistant prostate cancer (mCRPC).
Procedure: Patients received either exicorilant 180 mg twice daily (BID)+enzalutamide 160 mg once daily (QD), or exicorilant 140 mg BID+enzalutamide 160 mg QD with a 28-day enzalutamide lead-in, or exicorilant 140 mg BID+enzalutamide 160 mg QD without an enzalutamide lead-in. Segment 2 enrolled patients who were on a stable dose of enzalutamide with rising PSA (25% increase over nadir and an absolute value >1 ng/mL) and evaluated QD dosing of exicorilant in a double-blind design. All segment 2 patients received exicorilant 240 mg QD+enzalutamide and were randomized 3:1 to titrate to exicorilant 280 mg or 320 mg or to receive placebo.
Segment 2 of the study was a double-blind, placebo-controlled study of patients with rising PSA; exicorilant was administered once-daily, at a dose that was phased-in (titrated in these patients from 240 mg/day, to 280 mg/ day, to 320 mg/day). […] Twenty five patients were enrolled and randomized in a ratio of 3:1 to arm A or to arm B. Exicorilant was administered to the patients once per day, with food; enzalutamide was administered at the dose that was currently tolerated and stable for each patient. Pharmacokinetic assessments of both exicorilant and enzalutamide were made on cycle 1, day 15 (C1D15), and two weeks after each dose escalation; pharmacokinetic assessments of exicorilant were made after each dose reduction (if any). Pharmacodynamic (PD) assessments were made on cycle 1, day 1 (C1D1), cycle 1, day 15 (C1D15), and two weeks after each dose escalation every three cycles from cycle 3, and upon exicorilant discontinuation or disease progression.
PSADT was calculated prior to the first dose of exicorilant (patients on enzalutamide alone), and after C1D1, C2D1, and C3D1 (where “C1D1” stands for cycle 1, day 1 of the combined treatment; “C2D1” stands for cycle 2, day 1 of the combined treatment; and “C3D1” stands for cycle 3, day 1 of the combined treatment).
The median duration of exposure to exicorilant was 9.7 weeks (range: 2-61). In the results shown in FIG. 8A, tumor response was assessed by Prostate Cancer Clinical Trials Working Group 3 (PCWG3) criteria, incorporating modified “Response Evaluation Criteria in Solid Tumors v1.1” (mRECIST v1.1) criteria. Imaging-based PFS was assessed by mRECIST v1.1, progression on bone lesions per PCWG3, or death.
In data set [5] the target is T1, human GR (Homo sapiens, UniProt P04150).
T1 sequence (P04150 1-777): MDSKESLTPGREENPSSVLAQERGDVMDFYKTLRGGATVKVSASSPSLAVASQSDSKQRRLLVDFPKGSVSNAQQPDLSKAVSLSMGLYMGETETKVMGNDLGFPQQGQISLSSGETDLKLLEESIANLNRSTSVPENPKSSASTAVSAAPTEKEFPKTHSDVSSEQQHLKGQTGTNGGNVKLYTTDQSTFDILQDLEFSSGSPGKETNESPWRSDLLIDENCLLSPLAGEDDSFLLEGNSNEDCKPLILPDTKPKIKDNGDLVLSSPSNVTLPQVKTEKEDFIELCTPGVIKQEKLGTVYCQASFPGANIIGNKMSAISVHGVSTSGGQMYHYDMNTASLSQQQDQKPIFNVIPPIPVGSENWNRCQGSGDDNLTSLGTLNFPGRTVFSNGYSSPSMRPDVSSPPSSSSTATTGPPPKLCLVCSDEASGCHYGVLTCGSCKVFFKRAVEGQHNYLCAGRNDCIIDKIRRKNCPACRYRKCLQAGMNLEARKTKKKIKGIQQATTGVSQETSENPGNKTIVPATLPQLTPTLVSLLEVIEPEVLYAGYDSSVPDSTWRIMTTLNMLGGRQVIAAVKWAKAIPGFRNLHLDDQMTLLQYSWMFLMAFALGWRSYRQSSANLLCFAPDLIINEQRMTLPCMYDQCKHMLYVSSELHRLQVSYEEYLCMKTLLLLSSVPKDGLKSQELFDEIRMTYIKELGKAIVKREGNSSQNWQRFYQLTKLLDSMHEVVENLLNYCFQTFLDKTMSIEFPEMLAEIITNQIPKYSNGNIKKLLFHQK
In words: human GR binding.

Data set [6] concerns the target T1, human GR. The data set can be described thus: human GR functional assays. The format is cell-based.
The subject of another data set is ER and AR. In words: selectivity for GR relative to ER and AR.
Data set [7] in a line: exicorilant pharmacokinetics in Segment 2 patients. In kind it is in vivo, human. Conditions: for AUC(0-t) / Cmax: male, human, in vivo, oral, once daily with food; for AUC(0-t): read-out: AUC0-24, geometric mean; for Cmax: read-out: Cmax, geometric mean. The source says:
Exicorilant pharmacokinetics observed in the patients in Segment 2 are illustrated in FIG. 4A (data are shown as geometric mean plus geometric standard deviation), and tabulated in TABLE 6.

The mark [8] stands for this setting: Segment 2 (n = 25), PCWG3 criteria.
[9] abbreviates: Arm A, EXI 240 mg + ENZA 160 mg (15 PK observations).
Where [10] appears, read: Arm A, EXI 280 mg + ENZA 160 mg (8 PK observations).
[11] abbreviates: Arm A, EXI 320 mg + ENZA 160 mg (8 PK observations).
[12] abbreviates: Arm B, EXI 240 mg + ENZA 160 mg (14 PK observations, combined).

Take `CNC(=O)c1ccc(N2C(=S)N(c3ccc(C#N)c(C(F)(F)F)c3)C(=O)C2(C)C)cc1F` [enzalutamide]: the “enzalutamide exposures in combination with exicorilant” value in [1] was “consistent with historical data for enzalutamide 160 mg alone”. Moreover, the CDKN1C expression entry in the data set with GR target genes (CDKN1C) (enzalutamide alone, Segment 1 lead-in) is given as “not affected”.
As for `CNC(=O)c1ccc(N2C(=S)N(c3ccc(C#N)c(C(F)(F)F)c3)C(=O)C2(C)C)cc1F.Cn1ncc(S(=O)(=O)N2CC[C@H]3Cc4c(cnn4-c4ccc(F)cc4)C[C@]3(C(=O)c3cc(C(F)(F)F)ccn3)C2)n1` [exicorilant+enzalutamide], the tumor growth entry in data set [2] (exicorilant with enzalutamide vs enzalutamide alone, castrated mice, N=10/group) is listed as “significantly reduced tumor growth”. For the same compound, the “SAEs with a fatal outcome” value in data set [3] (Segment 2) is given as “No SAEs with a fatal outcome”. The “grade 5 TEAEs” value in [3] (all patients) is “no grade 5 adverse events; also recorded: no grade 5 TEAEs”. For the same compound, the “grade 4 TEAEs, number” value in [3] (human, in vivo) is “one”. Further, the “tolerated phase 2 regimen, exicorilant dose” value in data set [3] (once-daily, combined with 160 mg enzalutamide once daily, based on DLTs) was 240 mg. For the same compound, the dose-limiting events entry in data set [3] (segment 1, exicorilant BID fasted) is “Dose-limiting fatigue, musculoskeletal pain, and pancreatitis”. Further, in the data set with cortisol, ACTH, the “serum cortisol and ACTH levels” value is “neither ACTH nor cortisol levels are significantly elevated”. In addition, in data set [4] (Segment 2), the “PSA reductions at any time during treatment, % of patients” value is 56%; the “PSA reductions at any time during treatment, number of patients” value was 14; the “patients with greater than 25% increase in PSADT” value is given as “Two”. In data set [4] (Segment 2 (n = 25)), the “PSA response (≥50% PSA reduction from baseline), number of patients” value turned out to be 1; the “reductions in PSA as compared to baseline, % of patients” value is 15% and 16%; the “reductions in PSA as compared to baseline, number of patients” value was found to be 4. Moreover, the “radiographic / imaging-based tumor responses” value in data set [4] (Segment 2 (n = 25), PCWG3/mRECIST v1.1) was “no radiographic responses; also recorded: no imaging-based tumor responses”. Further, in data set [4] (setting [8]), the “best overall response of stable disease, % of patients” value is listed as 72% and the “best overall response of stable disease, number of patients” value was 18. In data set [4] (Segment 2, After C1D1 (n = 25)), the “PSADT increased, % of patients” value came to 52% and the “PSADT increased, number of patients” value is 13. For the same compound, in data set [4] (Segment 2, After C2D1 (n = 23)), the “PSADT increased, % of patients” value was 69.6% and the “PSADT increased, number of patients” value was 16. In data set [4] (Segment 2, After C3D1 (n = 13)), the “PSADT increased, % of patients” value is 61.4% and the “PSADT increased, number of patients” value is on record as 8. In addition, in data set [4] (Segment 2 patients who received more than two cycles of the combined treatment), the “PSADT increase, % of patients” value stood at 61.5%. In data set [4] (of 14 patients with PSA reductions), the “PSA declines by the second on-treatment PSA assessment, number of patients” value was found to be 11. In addition, the “PSA reduction from baseline in one patient” value in [4] (patient who received 320 mg exicorilant with 160 mg enzalutamide) was 71.1%. Moreover, in data set [4] (patient with 240 mg exicorilant + 160 mg enzalutamide), the “PSA reduction from baseline in one patient” value is given as 36.7%. Also, the “increases in PSA doubling time, % of patients” value in data set [4] (patients dosed daily under fed conditions) is “more than 50%”.
Broadly, the Ki is the dissociation constant of the complex between target and ligand, obtained from inhibition or displacement. Low readings indicate higher affinity, high ones lower affinity. For orientation: Cmax means the highest concentration seen after dosing. `Cn1ncc(S(=O)(=O)N2CC[C@H]3Cc4c(cnn4-c4ccc(F)cc4)C[C@]3(C(=O)c3cc(C(F)(F)F)ccn3)C2)n1` [exicorilant, ((4aR,8aS)-1-(4-fluorophenyl)-6-((2-methyl-2H-1,2,3-triazol-4-yl)sulfonyl)-4,4a,5,6,7,8,8a,9-octahydro-1H-pyrazolo[3,4-g]isoquinolin-4a-yl)(4-(trifluoromethyl)pyridin-2-yl)methanone] had a Ki at human GR [5] of under 1 nM. Besides, at human GR [6], the Ki was under 15 nM and the “mode of action at GR” value is recorded as “competitive, reversible, full antagonist of GR”. Also, in the data set on ER and AR, the “selectivity for GR” value was “selectivity for GR relative to ER and AR”. In addition, the tumor growth entry in data set [2] (exicorilant with castration vs castration alone, N=10 mice/group) was “significantly reduced tumor growth”. Further, the “most frequently reported TEAE assessed as related to exicorilant” value in data set [3] (human, in vivo) is given as “fatigue”. Besides, in [3] (male, human, in vivo), the “Exicorilant-related TEAE ALP increased, % of patients” value is given as “(12.0%)”; the “Exicorilant-related TEAE ALP increased, number of patients” value was determined as 3; the “Exicorilant-related TEAE Anemia, % of patients” value is on record as “(16.0%)”; the “Exicorilant-related TEAE Anemia, number of patients” value came to 4. Further, in data set [3] (male, human, in vivo), the “Exicorilant-related TEAE Constipation, % of patients” value is listed as “(28.0%)”; the “Exicorilant-related TEAE Constipation, number of patients” value is given as 7; the “Exicorilant-related TEAE Decreased appetite, % of patients” value is given as “(24.0%)”; the “Exicorilant-related TEAE Decreased appetite, number of patients” value is on record as 6. Besides, in [3] (male, human, in vivo), the “Exicorilant-related TEAE Lymphocyte count decreased, % of patients” value is given as “(12.0%)”; the “Exicorilant-related TEAE Lymphocyte count decreased, number of patients” value is on record as 3; the “Exicorilant-related TEAE Nausea, % of patients” value is recorded as “(20.0%)”; the “Exicorilant-related TEAE Nausea, number of patients” value is reported as 5. In addition, in data set [3] (male, human, in vivo), the “Exicorilant-related TEAE Pain in extremity, % of patients” value is recorded as “(20.0%)”; the “Exicorilant-related TEAE Pain in extremity, number of patients” value was 5; the “Patients with any TEAE related to exicorilant, %” value is “(92.0%)”; the “Patients with any TEAE related to exicorilant, number” value is reported as 23. In data set [3] (male, human, in vivo), the “SAEs assessed as being related to exicorilant, number” value came to 1; the “exicorilant-related AE back pain, % of patients” value worked out at 35%; the “exicorilant-related AE decreased appetite, % of patients” value worked out at 27%; the “exicorilant-related AE fatigue, % of patients” value turned out to be 57%. In addition, in data set [3] (male, human, in vivo), the “exicorilant-related AE pain in extremity, % of patients” value worked out at 22%. Besides, in [7] (Segment 2, 240-320 mg), the “exicorilant exposures across arms and dose levels” value is “largely overlapping across arms and dose levels”. In addition, in [7] (setting [9]), the AUC(0-t) turned out to be 366 µg·h/mL and the Cmax turned out to be 17700 ng/mL. Also, in data set [7] (setting [10]), the AUC(0-t) stood at 401 µg·h/mL and the Cmax stood at 19600 ng/mL. Besides, in data set [7] (setting [11]), the AUC(0-t) came out at 428 µg·h/mL and the Cmax turned out to be 19600 ng/mL. In data set [7] (setting [12]), the AUC(0-t) was found to be 375 µg·h/mL and the Cmax came out at 17200 ng/mL. For the same compound, in the data set on cortisol, ACTH (Segment 2 subjects with escalated exicorilant doses), the “24-h urinary free cortisol (UFC) levels” value was “did not increase UFC levels”. Further, the “serum cortisol and ACTH levels” value in the data set with cortisol, ACTH is recorded as “did not affect cortisol or ACTH levels; also recorded: not significantly altered; also recorded: no significant alterations”. For the same compound, in the data set with GR target genes (CDKN1C) (240-320 mg QD with food vs BID fasting (Segment 1)), the “pharmacodynamic effects (gene expression), with food vs fasting” value is “larger when exicorilant was administered with food; also recorded: greater than those observed in fasted patients”. The “modulation of GR target genes” value with GR target genes (CDKN1C) (patients receiving exicorilant) is “confirmed modulation of GR target genes; also recorded: Modulation of GR target genes was observed”.
